Here are results for two compounds from US20190209548A1, “LINKED DIARYL COMPOUNDS WITH ANTICANCER PROPERTIES AND METHODS OF USING THE SAME” (University of Maryland, College Park, priority 2014, published 2019).

Where two headings read alike, the source gives them in different places. A value given as a limit tells only on which side of the number the result lay.

One series concerns G-quadruplexes. Particulars: binding of classic G-tetrad-motif ligand to G-quadruplexes; cited from earlier work.
The test system of a further series is NBM. The series is described as follows: WST-1 IC50 determination, normal bone marrow. Type of series: cell-based, human. On the procedure:
(§1) Cell lines and culturing. The following human cell lines were purchased from ATCC (ATCC, Manassas, Va.): prostate cancer cells (PC-3), triple negative breast cancer cells (MDA-MB-231), ovarian cancer cells (OVCAR-3), normal bone marrow (NBM) and normal fibroblast cells (MCR5A). MDA-MB-231 cells were grown at 37° C. with 5% CO2 atmosphere with DMEM (Life technologies, Carlsbad, Calif.) supplemented with heat-inactivated 10% (V/V) fetal bovine serum. OVCAR-3 and PC-3 cells were grown at 37° C. with 5% CO2 atmosphere with RPMI (Life technologies, Carlsbad, Calif.) supplemented with heat-inactivated 10% (V/V) fetal bovine serum. Cell lines were grown and maintained according to ATCC recommendations.
(§2) IC50 determination. Cell lines were seeded into 96-well plates the afternoon prior to treatment. Cell seeding number was determined by growing cells in log phase growth during drug treatment. Approximately 18 hours later, compounds were semi-serially diluted in dimethyl sulfoxide (DMSO) and then growth medium, and added to cells. Plates were incubated for 72 hours prior to addition of WST-1 (Promega, Madison Wis.). Plates were read after 4 additional hours of incubation at 37° C. using a Bio-Tek Synergy HT plate reader (Bio-Tek, Winooski, Vt.). Data was analyzed, graphed and IC50s generated using GraphPad Prism Software (Graphpad, La Jolla, Calif.).
(§3) IC50 determination: For the determination of IC50 for the azolamide class, the same protocol as described previously was followed.
(Tetrazolium assays rely on reduction of a dye to a coloured formazan, in cell work by metabolically active cells.)

The next series has as its system c-kit2. The series is described as follows: FRET melting assay, c-kit2. Format: binding. Particulars: 0.2 μM dual-labeled DNA and 0.2 μM TMPyP4.
The test system of a further series is MDA-MB-231. Briefly: WST-1 IC50 determination, MDA-MB-231. Format: cell-based, human. The procedure:
as §1, §2, §3

The subject of another series is OVCAR-3. Briefly: WST-1 IC50 determination, OVCAR-3. Type of series: cell-based, human. On the procedure:
as §1, §2, §3

A further series concerns MCR5A. The series is described as follows: WST-1 IC50 determination, normal fibroblast. Type of series: cell-based, human. Particulars: normal fibroblast cell, 72 hours, read-out: IC50 ± SD, MCR5A. The procedure:
as §1, §2

The next series relates to Pu27-13,14. The series is described as follows: PCR stop assay, mutated control template. Format: biochemical. Particulars: 10 μM compound. On the procedure: (§4) PCR Stop Assay. This assay was performed by modifying a previously published protocol.
(§5) To the PCR reaction mixture (25 μL), 1×PCR buffer (New England Biolabs), 5 μM Pu27 and Pu27rev oligomers, various concentrations of ligands (DMZ, TMPyP4, DMZ1, DMZ9 and DMZ13) were added and incubated at 4° C. for 6 h. After that, 1 mM dNTPs, 5 units of Taq DNA polymerase (New England Biolabs) were added and PCR reactions were performed in a thermocycler, with the following conditions: 94° C. for 3 min, followed by 20 repeated cycles each having 94° C. for 30 s, 58° C. for 30 s, and 72° C. for 30 s. After PCR, amplified products were analyzed on 12% polyacrylamide gel with 1×TBE and SYBR Gold stained. This assay was also performed under the same conditions with Pu27-13,14 and Pu27rev.

Another series concerns c-MYC. Briefly: FRET melting assay, c-MYC. Format: binding. Particulars: 0.2 μM dual-labeled DNA and 0.2 μM TMPyP4.
A further series concerns duplex. The series is described as follows: FRET melting assay, duplex DNA. Format: binding. The note with it: 0.2 μM dual-labeled DNA and 0.2 μM TMPyP4.
The test system of the next series is c-MYC Pu27. Briefly: PCR stop assay, Pu27 template. Particulars: 10 μM compound. Format: biochemical. The procedure:
as §4, §5

For the next series, the system named is k-RAS21R. Briefly: FRET melting assay, k-RAS21R. Format: binding. The note with it: 0.2 μM dual-labeled DNA and 0.2 μM TMPyP4.
The next series has as its system PC-3. Briefly: WST-1 IC50 determination, PC-3. Format: cell-based, human. On the procedure:
as §1, §2, §3

Another series deals with F21T. Briefly: FRET melting assay, F21T. The note with it: 0.2 μM dual-labeled DNA and 0.2 μM TMPyP4. Format: binding.
A further series deals with MV4-11. The series is described as follows: IC50 determination, MV4-11. Format: cell-based. The note with it: Homo sapiens, Acute monocyctic leukemia, read-out: Anticancer activities, MV4-11. The procedure:
as §2, §3

The test system of a further series is THP1. The series is described as follows: WST-1 IC50 determination, THP1. Format: cell-based. Particulars: Homo sapiens, THP-1; THP1, 72 h; read-out: IC50 for killing Leukemia cell line. The procedure: as §2, §3
Another series is described as follows: Tolerability studies. Type of series: in vivo. The note with it: mice, 10 mg/Kg.
A further series relates to U87. The series is described as follows: IC50 determination, U87. Format: cell-based. Particulars: Homo sapiens, U-87 MG; Glioblastoma; read-out: Anticancer activities, U87. The procedure:
as §2, §3

Series [1] in a line: Human liver microsome stability. Type of series: in vitro ADME. Particulars: human, liver microsomes. The source says:
An established method to determine the pharmacokinetic clearance of a compound in humans is to measure the degradation of the compound in the presence of human liver microsomes. The following is the half-lives of the four compounds in human liver microsomes: […]
For orientation: Liver microsomes are vesicles of endoplasmic reticulum, rich in cytochrome P450 enzymes.

A further series relates to MOLM14. Briefly: WST-1 IC50 determination, MOLM14. Type of series: cell-based. Particulars: Homo sapiens, MOLM-14. The procedure: as §2, §3

Regarding `C[n+]1ccc(-c2c3nc(c(-c4cc[n+](C)cc4)c4ccc([nH]4)c(-c4cc[n+](C)cc4)c4ccc([nH]4)c(-c4cc[n+](C)cc4)c4nc2C=C4)C=C3)cc1` [TMPyP4, reference compound], the Ka entry in the series with G-quadruplexes was “≈ 5×10^6 M^−1”. The IC50 turned out to be 16800 nM with NBM (normal bone marrow, 72 hours, WST-1, read-out: IC50 ± SD, NBM); 14300 ± 4000 nM in the series with MDA-MB-231 (72 hours, WST-1, read-out: Anticancer activity IC50 ± SD, MDA-MB-231); 14600 ± 5700 nM in the series with OVCAR-3 (72 hours, WST-1, read-out: Anticancer activity IC50 ± SD, OVCAR-3); 15200 ± 6600 nM in the series on MCR5A; 14000 ± 5400 nM in the series on PC-3 (72 hours, WST-1, read-out: Anticancer activity IC50 ± SD, PC-3). Besides, the “ΔTm c-kit2” value in the series with c-kit2 turned out to be 3.46 ± 1.03 °C. Also, the “PCR product with non-G-quadruplex template” value with Pu27-13,14 was “no PCR product was observed”. Also, the “ΔTm c-MYC” value in the series on c-MYC was found to be 23.75 ± 0.52 °C. Also, the ΔTm duplex with duplex is 1.14 ± 0.52 °C. The “polymerization/extension of oligomers Pu27 and Pu27rev” value with c-MYC Pu27 is “showed inhibition”. The “ΔTm k-RAS21R” value in the series on k-RAS21R worked out at 34.71 ± 0.93 °C. Also, the “ΔTm F21T” value in the series with F21T stood at 4.01 ± 0.26 °C.

On to `N=C(N)c1ccc(/N=N/c2c(N)ncc3ccccc23)cc1` [HSW308-4], for which the IC50 amounted to 8700 nM in the series with NBM (Homo sapiens, Bone marrow cell, Normal bone marrow cells, read-out: Anticancer activities, NBM); 920 nM with MV4-11; 2600 nM in the series on THP1; 1900 nM in the series with MDA-MB-231 (Homo sapiens, MDA-MB-231, read-out: IC50 for killing triple negative breast cancer cell line (231)); 1850 nM in the series on MDA-MB-231 (Homo sapiens, MDA-MB-231, triple negative breast cancer, read-out: Anticancer activities, TNBC 231); 4200 nM in the series on OVCAR-3 (Homo sapiens, OVCAR-3, read-out: IC50 for killing ovarian cancer cell line (OVCAR-3)). Besides, the IC50 amounted to 1320 nM with U87; 980 nM in the series with MOLM14 (MOLM14, 72 h, read-out: IC50 for killing Leukemia cell line); 980 nM in the series with MOLM14 (leukemia, read-out: Anticancer activities, Molm14); 1300 nM in the series on PC-3 (Homo sapiens, PC-3, prostate cancer, read-out: Anticancer activities, PC3); 1000 nM in the series on PC-3 (Homo sapiens, PC-3, read-out: IC50 for killing prostate cancer cell line (PC-3)). Also, the tolerability result in the series “Tolerability studies” is on record as “can be tolerated”. Further, the half-life was 3.27 h in series [1] (read-out: NADPH-dependent T½) and over 4 h in series [1] (read-out: NADPH-independent T½).
